Results published in article PMC4411898, “Impact of kinesin Eg5 inhibition by 3,4-dihydropyrimidin-2(1H)-one derivatives on various breast cancer cell features” (BMC Cancer, 2015).

What was measured:
[1] = molecular target: T1, Kinesin Eg5 (Homo sapiens, UniProt P52732); assay: Kinesin inhibition assay (Kinesin ELIPA); assay type: biochemical; details: compound at its IC50, 30 min, 360 nm
T1 sequence (P52732 1-1056): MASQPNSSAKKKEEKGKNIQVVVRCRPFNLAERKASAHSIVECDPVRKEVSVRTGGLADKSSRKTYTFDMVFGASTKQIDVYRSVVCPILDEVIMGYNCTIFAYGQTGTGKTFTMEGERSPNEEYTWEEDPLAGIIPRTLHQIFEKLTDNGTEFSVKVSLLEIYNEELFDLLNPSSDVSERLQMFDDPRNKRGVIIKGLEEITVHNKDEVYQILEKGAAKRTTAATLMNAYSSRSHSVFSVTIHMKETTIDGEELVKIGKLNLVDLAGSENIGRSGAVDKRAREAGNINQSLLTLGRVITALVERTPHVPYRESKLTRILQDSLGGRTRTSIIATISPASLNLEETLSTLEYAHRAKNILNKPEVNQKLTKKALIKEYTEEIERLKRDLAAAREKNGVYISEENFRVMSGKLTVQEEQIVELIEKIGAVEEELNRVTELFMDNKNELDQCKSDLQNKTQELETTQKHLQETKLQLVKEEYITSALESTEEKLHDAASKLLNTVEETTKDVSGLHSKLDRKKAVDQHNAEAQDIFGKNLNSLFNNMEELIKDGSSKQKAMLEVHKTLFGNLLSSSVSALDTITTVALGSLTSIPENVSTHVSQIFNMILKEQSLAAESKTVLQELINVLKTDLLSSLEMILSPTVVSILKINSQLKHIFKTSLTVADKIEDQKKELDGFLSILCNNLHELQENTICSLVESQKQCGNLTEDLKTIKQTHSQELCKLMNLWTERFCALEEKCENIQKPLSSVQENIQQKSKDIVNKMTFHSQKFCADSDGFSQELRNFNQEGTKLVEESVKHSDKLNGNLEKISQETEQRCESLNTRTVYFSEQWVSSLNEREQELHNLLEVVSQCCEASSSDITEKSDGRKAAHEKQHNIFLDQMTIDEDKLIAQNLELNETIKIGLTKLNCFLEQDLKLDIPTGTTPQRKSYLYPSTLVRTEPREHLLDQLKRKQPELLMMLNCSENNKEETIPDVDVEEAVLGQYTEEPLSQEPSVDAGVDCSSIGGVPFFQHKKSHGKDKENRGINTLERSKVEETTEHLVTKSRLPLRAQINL
Description: Kinesin inhibition assays were performed using Kinesin ELIPA (Enzyme Linked Inorganic Phosphate Assay). Reactions were conducted in 96-well plates according to the manufacturer’s recommendations (Kinesin ELIPA Biochem Kit – BK060).
Reactions were measured in spectrophotometer set in kinetic mode and an absorbance wavelength of 360 nm.

[2] = system: MCF-7 cells; assay: CFSE proliferation assay, MCF-7; assay type: cell-based, human; details: 72 h, IC50 concentration of each compound
Description: (§1) For proliferation assays, cells were treated with IC50 concentrations of each compound. Adherent and floating cells were harvested at the same tube and pelleted by centrifugation at 300 g for 5 minutes and stained. Data acquisition of these two fractions put together was performed on a FACSCalibur flow cytometer using CellQuest software and analysed using the FloJo Software. […] After adhesion, cells were treated with DHPMs or maintained in culture medium only (control) for 72 h. The percentage of proliferative cells was calculated based on the CFSE fluorescence profile analysis of the tested samples compared to that of the fixed undivided control cells (treated with 10 μM of colchicine) using the FlowJo software.

[3] = system: MDA-MB-231 cells; assay: CFSE proliferation assay, MDA-MB-231; assay type: cell-based, human; details: 72 h, IC50 concentration of each compound
Description: as §1

[4] = system: MCF-7 cells; assay: Cell cycle analysis (PI), MCF-7; assay type: cell-based, human; details: 4m 1 mM, 4bt 0.8 mM, 4p 0.4 mM, 4bc 1.0 mM, 4x 0.8 mM
Description: For proliferation assays, cells were treated with IC50 concentrations of each compound. Adherent and floating cells were harvested at the same tube and pelleted by centrifugation at 300 g for 5 minutes and stained. Data acquisition of these two fractions put together was performed on a FACSCalibur flow cytometer using CellQuest software and analysed using the FloJo Software. Control and DHPM-treated cells were harvested at 24, 48 and 72 h, resuspended in ice-cold PBS and fixed with 70% ethanol on ice. Cells were then washed with PBS, harvested and incubated with propidium iodide solution (0.1% Triton X-100, 10 μg/mL propidium iodide, 100 μg/mL DNase free RNase) for 10 min at 37°C. For analysis of cell populations in each cell cycle phase, the sub-G1 picks were excluded and the plots were generated by cell cycle platform data analysis by the FlowJo Software.

[5] = system: HUVEC cells; assay: HUVEC tube formation assay; assay type: cell-based, human; details: 11 h; 30 μM, IC50 or 300 μM, mainly 300 μM
Description: The anti-angiogenic potential of DHPMs was tested using an in vitro Angiogenesis Assay Kit according to the manufacturer’s instructions. […] These plates were incubated for 11 hours at 37°C, in 5% CO2. Wells were subsequently photographed using an inverted light microscope at 20x magnification and tube formation analyzed. Seven fields per group of 3 independent experiments were quantified by pattern recognition according to manufacturer’s instructions.

[6] = system: MCF-7 cells; assay: DAPI staining and transmission electron microscopy analysis; assay type: cell-based, human; details: MCF-7, 4p 0.4 mM, 24 h (DAPI) or 48 h (TEM)
Description: Aliquots of 8 × 10^5 MCF-7 cells were seeded in 12-well plates and ultra-structural analysis performed on controls or after 48 h of treatment with 4p (0.4 mM). Cells were washed twice with PBS and fixed overnight with glutaraldehyde (2.5%) at 4°C. Cells were subsequently washed with 0.1 M sodium cacodylate buffer (pH 7.2) and post-fixed in 1% osmium tetroxide and 0.8% potassium ferricyanide (10 mM CaCl2 in 0.2 M sodium cacodylate buffer). Samples were washed twice with 0.1 M sodium cacodylate buffer (pH 7.2) and in-block staining was performed for 16 h with 0.5% uranyl acetate at 4°C. Cells were dehydrated in a graded acetone series (50-100%) and embedded in Spurr resin.
Cells were analyzed under a laser scanning confocal microscope. B, MCF-7 cells control or treated with 4p (0.4 mM) for 24 h had their nucleus stained with DAPI (left panels) or were processed and analyzed by Transmission Electron Microscopy after exposure to 4p (0.4 mM) for 48 h (right panels).

Structure (SMILES) | Inhibition of kinesin Eg5 activity in vitro (in words) [1] | Inhibition of cell proliferation, MCF-7 [2] | Inhibition of cell proliferation, MDA-MB-231 [3] | Cell cycle effect, MCF-7, 48 h [4] | HUVEC tube formation (pattern recognition / morphology) [5] | Cell phenotype by DAPI staining and TEM [6]
CCOC(=O)C1=C(C)NC(=S)NC1c1ccccc1O (centres unmarked) [Compound 4p] | not statistically significant | Approximately 50% | Approximately 50% | cell cycle arrest at G2/M | more pronounced anti-angiogenic morphological aspect | mitotic catastrophe phenotype
CC(=O)C1=C(C)NC(=O)NC1c1ccccc1[N+](=O)[O-] (centres unmarked) [Compound 4x] | not statistically significant | – | – | cell cycle arrest at G2/M | – | –
